The record followed here is patent US20240254138A1, “TRICYCLIC PYRIMIDINES AS CYCLIN-DEPENDENT KINASE 7 (CDK7) INHIBITORS” (JANSSEN PHARMACEUTICA NV, priority 2021, published 2024).

For orientation: kinact means the maximal first-order rate at which the target is inactivated.

Read-outs that look alike come from different tables or passages of the source.

Assay [1] relates to RNA Polymerase II Serine 5 phosphorylation (Rpb1 CTD, downstream substrate of CDK7) in A549 cells. The experiment in a line: Imaging-based cellular RNA PolII Ser5 phosphorylation assay in A549 cells. It counts as cell-based, human. Conditions: Homo sapiens, A549, A549 cells, wild-type CDK7; RNA PolII Ser5 phosphorylation; averaged over all measurements; read-out: CDK7_A549 Wild-type CDK7 (pIC50) (converted). The procedure, abridged:
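A549 cells, seeded 1000/well in DMEM with 1% FBS and cultured 20 h, were treated with compound for 3 h at 37 °C. Ser5-phospho-Rpb1 CTD detected by immunofluorescence imaging after fixation and methanol permeabilization; IC50 from curve fit normalized to DMSO and 10 μM reference-compound controls.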

For assay [2], the system named is RNA Polymerase II Serine 5 phosphorylation in A549 cells overexpressing CDK7-mutant (C312S). Kind of assay: Imaging-based cellular RNA PolII Ser5 phosphorylation assay in A549 cells overexpressing CDK7-mutant (C312S). It counts as cell-based, human. Conditions: Homo sapiens, A549, A549 cells overexpressing CDK7-mutant (C312S); RNA PolII Ser5 phosphorylation; averaged over all measurements; read-out: CDK7_A549 mutant hCDK7(pIC50) (converted). The gist of the method:
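A549 cells overexpressing CDK7 C312S (with endogenous wild-type CDK7) were treated with compound for 3 h at 37 °C in 1% FBS medium. Phospho-Rpb1 CTD Ser5 was immunostained after fixation and imaged. IC50 came from curve fit of % control, normalised to DMSO and 10 μM reference-compound controls.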

Assay [3] addresses CDK7/cyclinH/MAT1 trimeric complex (Homo sapiens, UniProt P50613). Kind of assay: In vitro CDK7 assay, potency of irreversible covalent inhibitors (kinact/KI), coupled PK/LDH ADP readout at 340 nm. Conditions: for Ki: CDK7 (20 nM enz.) (KI, μM), 20 nM enzyme; for kinact: read-out: CDK7 (20 nM enz.) (kinact, s^−1), 20 nM enzyme.
The mark [4] stands for this setting: read-out: CDK7 (20 nM enz.) (kinact/KI, M^−1*s^−1), 20 nM enzyme.

CDK7/cyclinH/MAT1 trimeric complex, sequence (P50613 whole entry): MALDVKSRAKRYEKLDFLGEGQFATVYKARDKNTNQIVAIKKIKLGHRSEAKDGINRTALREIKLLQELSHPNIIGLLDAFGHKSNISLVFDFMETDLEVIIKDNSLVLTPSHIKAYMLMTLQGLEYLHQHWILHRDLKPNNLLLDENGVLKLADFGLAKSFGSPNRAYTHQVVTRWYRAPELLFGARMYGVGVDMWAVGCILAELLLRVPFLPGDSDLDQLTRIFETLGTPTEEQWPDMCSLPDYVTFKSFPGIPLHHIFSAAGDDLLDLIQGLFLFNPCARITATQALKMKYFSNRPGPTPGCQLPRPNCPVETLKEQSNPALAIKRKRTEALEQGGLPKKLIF
CDK7/cyclinH/MAT1 trimeric complex, sequence (P51946 whole entry partner): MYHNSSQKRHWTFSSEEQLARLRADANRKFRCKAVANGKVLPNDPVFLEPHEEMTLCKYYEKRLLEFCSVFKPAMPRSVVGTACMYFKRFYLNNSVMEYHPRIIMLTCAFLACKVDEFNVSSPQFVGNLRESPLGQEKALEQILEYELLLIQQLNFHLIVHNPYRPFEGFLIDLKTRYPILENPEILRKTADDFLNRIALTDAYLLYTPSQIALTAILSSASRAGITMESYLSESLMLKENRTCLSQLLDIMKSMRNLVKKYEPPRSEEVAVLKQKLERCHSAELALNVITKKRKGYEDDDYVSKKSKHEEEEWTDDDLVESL
CDK7/cyclinH/MAT1 trimeric complex, sequence (P51948 whole entry partner): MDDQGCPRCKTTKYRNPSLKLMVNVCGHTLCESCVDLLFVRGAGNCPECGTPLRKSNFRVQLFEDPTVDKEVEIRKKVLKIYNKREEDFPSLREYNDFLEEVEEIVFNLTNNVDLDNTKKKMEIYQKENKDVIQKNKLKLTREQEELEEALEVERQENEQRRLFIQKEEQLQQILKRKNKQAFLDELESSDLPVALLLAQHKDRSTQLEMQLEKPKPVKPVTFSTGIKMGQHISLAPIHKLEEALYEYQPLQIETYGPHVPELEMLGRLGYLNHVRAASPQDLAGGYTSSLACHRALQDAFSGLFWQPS

For the compound `C=CC(=O)N1CC[C@@H](N2CC(c3cc4c(c(C)n3)O[C@H](C)c3c(N5CCOCC5)ccnc3N4)C2)C1` (single isomer, unassigned) [Compound 457], the IC50 in assay [1] is 0.0912 µM; in assay [2], greater than 10 µM. The compound also came in with a Ki in assay [3] of 0.214 µM. For the same compound, the kinact in assay [3] was 0.000104 s⁻¹. Also, in assay [3] (setting [4]), the kinact/KI was 485 M⁻¹ s⁻¹.

With `C=CC(=O)N1CC[C@H](N2CC(c3cc4c(c(C)n3)O[C@@H](C)c3c(N5CCOCC5)ccnc3N4)C2)C1` (single isomer, unassigned) [Compound 458], the IC50 in assay [1] is 5.25 µM. Also, the IC50 in assay [2] was greater than 10 µM. Besides, in assay [3], the Ki was 19.2 µM and the maximal inactivation rate constant (kinact) is 6.89e-05 s⁻¹. In addition, in assay [3] (setting [4]), the kinact/KI worked out at 3.59 M⁻¹ s⁻¹.

Regarding `C=CC(=O)N1CC[C@H](N2CC(c3cc(C#N)c4c(c3)Nc3nccc(N5CCOCC5)c3[C@@H](C)O4)C2)C1` (single isomer, unassigned) [Compound 459], the IC50 in assay [1] is 0.0724 µM; in assay [2], 4.37 µM. Also, the kinact/KI in assay [3] (read-out: CDK7 (20 nM enz.) (kobs/[I], M^−1*s^−1), 20 nM enzyme) is 734 M⁻¹ s⁻¹.

In the case of `C=CC(=O)N1CC[C@H](N2CC(c3cc(C#N)c4c(c3)Nc3nccc(N5CCOCC5)c3[C@H](C)O4)C2)C1` (single isomer, unassigned) [Compound 460], the results for the IC50 in assay [1] and in assay [2] were 1.29 µM and greater than 10 µM, respectively. For the same compound, the kinact/KI in assay [3] (setting [4]) turned out to be 14.4 M⁻¹ s⁻¹.

For `C=CC(=O)N1CC[C@@H](N2CC(c3cc(C#N)c4c(c3)Nc3nccc(N5CCOCC5)c3[C@H](C)O4)C2)C1` (single isomer, unassigned) [Compound 461], the IC50 in assay [1] was 0.692 µM; in assay [2] it was greater than 10 µM. For the same compound, in assay [3] (setting [4]), the kinact/KI worked out at 16.1 M⁻¹ s⁻¹.

In the case of `C=CC(=O)N1CC[C@@H](N2CC(c3cc(C#N)c4c(c3)Nc3nccc(N5CCOCC5)c3[C@@H](C)O4)C2)C1` (single isomer, unassigned) [Compound 462], the results for the IC50 in assay [1] and in assay [2] were 0.0501 µM and 5.25 µM, respectively. In addition, the kinact/KI in assay [3] (setting [4]) was 509 M⁻¹ s⁻¹.

With `C=CC(=O)N1CC[C@H](N2CC(c3cc4c(c(C5CC5)n3)O[C@H](C)c3c(N5CCOCC5)ccnc3N4)C2)C1` (single isomer, unassigned) [Compound 463], the IC50 in assay [1] was 1.05 µM. Also, the IC50 in assay [2] is greater than 10 µM. In assay [3], the Ki stood at 0.423 µM and the maximal inactivation rate constant (kinact) stood at 3.44e-05 s⁻¹. In addition, the kinact/KI in assay [3] (setting [4]) was found to be 81.3 M⁻¹ s⁻¹.

`CC#CC(=O)N1CC[C@@H](N2CC(c3cc4c(c(C5CC5)n3)O[C@H](C)c3c(N5CCOCC5)ccnc3N4)C2)C1` (single isomer, unassigned) [Compound 464]: the IC50 in assay [1] is 7.59 µM. In addition, the IC50 in assay [2] is greater than 10 µM. In addition, in assay [3], the Ki came to 4.03 µM and the kinact is 2.27e-05 s⁻¹. Moreover, the kinact/KI in assay [3] (setting [4]) was 5.64 M⁻¹ s⁻¹.

`C=CC(=O)N1CCC(N2CC(c3cc4c(c(C)n3)O[C@H](C)c3c(C5CCOCC5)ccnc3N4)C2)CC1` (single isomer, unassigned) [Compound 465]: the IC50 in assay [1] was 0.0724 µM. Further, the IC50 in assay [2] was 7.08 µM. For the same compound, in assay [3], the Ki was found to be 0.0329 µM and the kinact was determined as 2.79e-05 s⁻¹. Also, the kinact/KI in assay [3] (setting [4]) was found to be 848 M⁻¹ s⁻¹.

As to `C=CC(=O)N1CC[C@H](N2CC(c3cc4c(c(C5CC5)n3)O[C@@H](C)c3c(N5CCOCC5)ccnc3N4)C2)C1` (single isomer, unassigned) [Compound 466], the IC50 in assay [1] was 0.123 µM; in assay [2], greater than 10 µM. Moreover, the Ki in assay [3] was determined as 0.0307 µM. The kinact in assay [3] worked out at 5.02e-05 s⁻¹. In assay [3] (setting [4]), the kinact/KI came out at 1630 M⁻¹ s⁻¹.

Turning to `C=CC(=O)N1CC[C@@H](N2CC(c3cc4c(c(C5CC5)n3)O[C@@H](C)c3c(N5CCOCC5)ccnc3N4)C2)C1` (single isomer, unassigned) [Compound 467], the IC50 in assay [1] was 0.117 µM. The IC50 in assay [2] was greater than 10 µM. For the same compound, in assay [3], the Ki amounted to 0.0121 µM and the maximal inactivation rate constant (kinact) worked out at 3.18e-05 s⁻¹. Also, the kinact/KI in assay [3] (setting [4]) is 2630 M⁻¹ s⁻¹.

Consider `C=CC(=O)N1CCC(N2CC(c3cc4c(c(C)n3)O[C@@H](C)c3c(C5CCOCC5)ccnc3N4)C2)CC1` (single isomer, unassigned) [Compound 468], for which the IC50 in assay [1] was 2.04 µM. Further, in assay [2], the IC50 was greater than 10 µM. For the same compound, in assay [3], the Ki came out at 2.21 µM and the kinact is 3.64e-05 s⁻¹. The kinact/KI in assay [3] (setting [4]) was 16.5 M⁻¹ s⁻¹.

In the case of `C=CC(=O)N1CC[C@@H](N2CC(c3cc4c(c(C5CC5)n3)O[C@H](C)c3c(N5CCOCC5)ccnc3N4)C2)C1` (single isomer, unassigned) [Compound 469], the IC50 was 2.14 µM in assay [1] and greater than 10 µM in assay [2]. Moreover, the Ki in assay [3] is 1.32 µM. Further, the kinact in assay [3] was 4.03e-05 s⁻¹. For the same compound, the kinact/KI in assay [3] (setting [4]) turned out to be 30.5 M⁻¹ s⁻¹.

With `CC#CC(=O)N1CC[C@H](N2CC(c3cc4c(c(C5CC5)n3)O[C@@H](C)c3c(N5CCOCC5)ccnc3N4)C2)C1` (single isomer, unassigned) [Compound 470], the IC50 in assay [1] was 0.251 µM; in assay [2], greater than 10 µM. In assay [3], the Ki was found to be 0.0394 µM. In addition, the maximal inactivation rate constant (kinact) in assay [3] is 3e-05 s⁻¹. Also, in assay [3] (setting [4]), the kinact/KI stood at 761 M⁻¹ s⁻¹.

Consider `CC#CC(=O)N1CC[C@H](N2CC(c3cc4c(c(C5CC5)n3)O[C@H](C)c3c(N5CCOCC5)ccnc3N4)C2)C1` (single isomer, unassigned) [Compound 471], for which the IC50 in assay [1] was 7.08 µM; in assay [2], greater than 10 µM. In assay [3], this compound displayed a Ki of 3.64 µM. For the same compound, the kinact in assay [3] was 3.28e-05 s⁻¹. In assay [3] (setting [4]), the kinact/KI was 9.02 M⁻¹ s⁻¹.

Turning to `CC#CC(=O)N1CC[C@@H](N2CC(c3cc4c(c(C5CC5)n3)O[C@@H](C)c3c(N5CCOCC5)ccnc3N4)C2)C1` (single isomer, unassigned) [Compound 472], the figures for the IC50 in assay [1] and in assay [2] were 0.204 µM and greater than 10 µM, respectively. In assay [3] (setting [4]), the kinact/KI is 79.5 M⁻¹ s⁻¹.

As for `CC#CC(=O)N1CC(N2CC(c3cc(C#N)c4c(c3)Nc3nccc(C5CCOCC5)c3[C@@H](C)O4)C2)C1` (single isomer, unassigned) [Compound 475], the IC50 was 0.204 µM in assay [1] and 7.59 µM in assay [2]. The kinact/KI in assay [3] (setting [4]) amounted to 351 M⁻¹ s⁻¹.

Regarding `C=CC(=O)N1CC(N2CC(c3cc4c(c(C)n3)O[C@H](C)c3c(C5CCOCC5)ccnc3N4)C2)C1` (single isomer, unassigned) [Compound 477], the values for the IC50 in assay [1] and in assay [2] were 0.166 µM and greater than 10 µM, respectively. Moreover, the kinact/KI in assay [3] (setting [4]) amounted to 342 M⁻¹ s⁻¹.

Regarding `C=CC(=O)N1CC[C@H](N2CC(c3cc4c(c(C)n3)O[C@H](C)c3c(-c5cnn(C)c5)ccnc3N4)C2)C1` (single isomer, unassigned) [Compound 478], the figures for the IC50 in assay [1] and in assay [2] were 0.158 µM and greater than 10 µM, respectively. In assay [3] (setting [4]), the kinact/KI stood at 292 M⁻¹ s⁻¹.

On to `C=CC(=O)N1CC(N2CC(c3cc4c(c(C)n3)O[C@@H](C)c3c(C5CCOCC5)ccnc3N4)C2)C1` (single isomer, unassigned) [Compound 480], for which the IC50 in assay [1] is 4.57 µM; in assay [2], greater than 10 µM. Further, the kinact/KI in assay [3] (setting [4]) was found to be 2.97 M⁻¹ s⁻¹.

Consider `C=CC(=O)N1CC[C@@H](N2CC(c3cc4c(c(C)n3)O[C@H](C)c3c(-c5cnn(C)c5)ccnc3N4)C2)C1` (single isomer, unassigned) [Compound 482], for which the IC50 in assay [1] is 0.0891 µM; in assay [2] it was greater than 10 µM. The kinact/KI in assay [3] (setting [4]) stood at 339 M⁻¹ s⁻¹.

With `CC#CC(=O)N1CC(N2CC(c3cc(C#N)c4c(c3)Nc3nccc(C5CCOCC5)c3[C@H](C)O4)C2)C1` (single isomer, unassigned) [Compound 486], the IC50 was 5.62 µM in assay [1] and greater than 10 µM in assay [2]. In assay [3] (setting [4]), the kinact/KI worked out at 1.32 M⁻¹ s⁻¹.
